Data taken from US5298502A, “Method and composition for photodynamic treatment and detection of tumors” (priority 1991, dated 1994).

Tests used:
HeLa cells [1] = experiment: Proto IX in HeLa cells and culture medium, cell growth observations (Example 8); assay type: cell-based, human; settings: 100 μM agent, compared to the control; for inhibition at 100 µM: Homo sapiens, HeLa, read-out: inhibiting effect on cell growth (rough observations)
Description: In a manner similar to Examples 1 and 2, cultures of HeLa cells were incubated in the presence of 100 μM of various treating agents, listed below. The agent was added in dilute solution in dimethylsulfoxide (DMSO),and the controls contained 0.2% DMSO v/v. After such incubation the culture medium was poured off, removing it from the cells, the cells were loosened from the culture flasks by addition of 0.25% W/v trypsin Which remained in contact With the cells for 20 minutes at 37° C., after which a fluorometric medium was added to the flask. The fluorometric medium was the same as that described in Example 7 except that its pH was 6.5; this medium also acted as an extractant. The resulting extract was analyzed for proto IX content. The separated culture medium was also analyzed fluorometrically for Proto IX content. The pairs of percentages given, next to each treating agent, indicate the amount of Proto IX produced in the presence of that treating agent relative to the amount produced by the control in the same experiment; the first number of each pair relates to the concentration of Proto IX in the culture medium and the second number relates to the concentration in the cells. [drawing 12]

HeLa cells [2] = experiment: Growth inhibition and Proto IX accumulation in HeLa cells (Example 2); assay type: cell-based, human; settings: 100 μM agent
Description: HeLa cells, in logarithmic growth phase having been cultured for 6 days in six one-liter Falcon tissue culture flasks at 37° C.), were washed in phosphate buffered saline (PBS). A 0.25% solution of trypsin in PBS was added, and, after several minutes, the cells were gently removed and placed into 110 mL of a 25 mM solution of Hepes in Minimum Essential Medium (MEM), supplemented with 10% v/v inactivated calf serum, 1.1 mL of a 200 mM solution of glutamine in 0.85% saline solution, and 11,000 units of penicillin/11,000 mcg streptomycin.
Aliquots (5.0 mL each) of the resuspended cell culture were placed into 50 mL Falcon tissue culture flasks, with or without herbicide, and incubated in the dark at 37° C. for 4 days, the herbicide being added in dilute acetone solution as in Example 1. Acetone was also added to the controls to provide a concentration of acetone of 0.2% v/v therein. The amount of herbicide was such as to provide the concentrations specified in Table 2 below.
Extraction: The media from each of the flasks were placed in glass round bottom tubes, while the cells adhering to the bottom of the flasks were loosened by the addition of 0.5 mL of a 0.25% solution of trypsin in PBS, and after several minutes at 37° C., then washed from the flasks and recombined with their media. Aliquots of 100 μL were then removed from each cell suspension to determine cell density. The remaining 5.4 mL of cell suspension was then sonified for 30 minutes to disrupt the cells.
Ten mL of basic acetone (90% acetone:10% 0.1 N NH4 OH) was then added to each tube, and the tubes were centrifuged to remove protein and cell debris. Five mL of water was added to the supernatant, followed by 0.5 mL of a saturated aqueous solution of NaCl. The pH was then adjusted to 6.8 by the dropwise addition of 2 M KH2 PO4. The aqueous acetone extract was then loaded onto a C8 Baker Prep column. The columns were dried and then washed with 2 mL of water. The tetrapyrroles were eluted with 3 mL of 90/10 CH3 OH/H2 O. As in Example 1, all these extraction procedures were carried out substantially entirely under non-protoporphrin IX-exciting light (e.g. green light) or in the dark (e.g. in opaque covered containers). The fluorescence of the extracts was then determined on a SPEX spectrofluorometer. Protoporphyrin IX ("Proto IX") accumulation was quantified utilizing predetermined extinction coefficients.

[3] = system: DBA/2 Ha mice with SMT-F subcutaneous tumors; experiment: Proto IX content of tissues of tumor-bearing mice fed the agent (Example 6); assay type: in vivo; settings: for concentration of Proto IX in tissue, Adrenal / concentration of Proto IX in tissue, Intestine / concentration of Proto IX in tissue, Kidneys / concentration of Proto IX in tissue, Liver / concentration of Proto IX in tissue, Tumor / Proto IX Mean Cps per gram, Intestine: 2000 ppm in feed; for Proto IX Mean Cps per gram, Adrenal / Proto IX Mean Cps per gram, Kidneys / Proto IX Mean Cps per gram, Liver / Proto IX Mean Cps per gram, Tumor / Weight of Tumor as excised: 2000 ppm in feed Days 2-10, sacrificed Day 10 (6j Day 7); for Proto IX Mean Cps per gram, Intestine: samples diluted with 3 parts basic acetone to one part sample
Description: In this Example the enzyme-inhibiting agents were added to the feed of tumor-bearing mice; for some of the mice, used as a control, no agent was added to the feed. The mice were then sacrificed and their kidneys, intestines, adrenal glands, liver and tumor were removed and analyzed for their content of Proto IX. The following enzyme-inhibiting agents were employed: [drawing 10]
More particularly, the mice were DBA/2 Ha mice which had been injected with SMT-F subcutaneous tumors on Day 0 in the right shoulder. The mice, individually housed, received untreated Purina Rodent Chow 5001 Mash on Day 1; thereafter on Days 2 through 10 the mice received the same Mash treated with 2000 ppm of the inhibiting agent being tested (or, for the controls, the same untreated Mash). The treatment of the Mash was effected by blending it with a small amount of an acetone solution of the agent to be tested. The mice were then sacrificed on Day 10, except for the mouse treated with the agent designated as 6j; the latter was sacrificed on Day 7. The tissues were refrigerated at 4° C. overnight, then blotted dry, and the fresh weight of each tissue sample was recorded. The tissues were then homogenized in 5 mL, or lo mL in the cases of intestines and liver, of acetone-0.1 N NH4 OH (9:I, v/v). The homogenates were then centrifuged at 1500 g and the supernatants were analyzed on a SPEX FAII2 spectrofluorometer; excitation 400 nm, emission 630 nm wavelengths, the optima for Proto IX. Proto IX accumulation was determined as CPS (fluorescent counts per second emitted) per gram of tissue. The results are tabulated below (results are averages for two mice for each treatment, except for treatments with agents 6f, 6h, 6i and 6j in each of which only one mouse was treated): […]

HeLa cells [4] = experiment: Tetrapyrrole accumulation in treated HeLa cells (Example 1); assay type: cell-based, human; settings: 3 days in the dark
Description: HeLa cells (a human tumor cell line commonly employed for tumor research and obtained from the American Type Culture Collection), in logarithmic growth phase (having been cultured at 37° C. for five days in one-liter Falcon tissue culture flasks), were washed in phosphate buffered saline (PBS). A 0.25% solution of trypsin in PBS (2 mL) was added, and, after several minutes, the cells were gently removed from the flask and placed into 110 mL of a 25 mM solution of Hepes in Minimum Essential Medium (MEM) supplemented with 10% v/v inactivated calf serum, 1.1 mL of a 200 mM solution of glutamine in 0.85% saline solution, and 11,000 units of penicillin/11,000 mcg streptomycin.
Then, 5.0 mL aliquots of the resulting resuspended cell culture were each placed into a 50 mL Falcon tissue culture flask and (except for the control) mixed with the treating agent. The aliquots were then incubated in the dark at 37° C. for three days. The cells were then removed and extracted under green light in the following manner:
Cells were removed from the bottom of the flask with the addition of 0.8 mL of a 0.25% solution of trypsin in PBS. After 1 hour of incubation in the dark, cells and medium were removed from the flasks, placed into round bottom centrifuge tubes, and then subjected to two rounds of freeze-thaw conditions to disrupt the cells and allow for extraction.
Ten mL of basic acetone (90% acetone:10% of 0.1 N NH4 OH) was then added to each tube, and the tubes were centrifuged to remove protein and cell debris. Five mL of water was added to the supernatant, followed by 0.5 mL of a saturated aqueous solution of NaCl. The pH was then adjusted to 6.8 by the dropwise addition of 2 M KH2 PO4. The aqueous acetone extract was then loaded onto a C8 Baker Prep column. The columns were dried and then washed with 2 mL of water. The tetrapyrroles were eluted with 2×1.5 mL volumes of 90/10 CH3 OH/H2 O. Extracts were then quantified on a spectrofluorometer.
Agent A was supplied as a filter-sterilized 250 mM solution in water, pH 6.5. Agents B, C, D, and E were supplied as 50 mM solutions in acetone. Acetone was also added to the control to provide a concentration of 0.2% v/v therein. The amounts of the agents added to the cell cultures were such as to give the concentrations specified in the Table 1 below. The amounts of the tetrapyrrole protoporphyrin IX ("Proto IX") produced are shown in that Table.

Compound: COc1ccc(OC)c(CNC(=O)c2ccc(Cl)cc2)c1 [Compound 8aj]
- inhibition at 100 µM (HeLa cells [1]): 25%

Compound: CC(C)Oc1cc(-n2nc(C(C)(C)C)oc2=O)c(Cl)cc1Cl [Agent F]
- Amount of Proto IX (HeLa cells [2]; average amount per 10^6 cells): 2.71 pmol
- inhibition at 100 µM (HeLa cells [2]; Homo sapiens, HeLa, 96 h, 4 days in the dark): 106%

Compound: CCOC(=O)C(C)OC(=O)c1cc(Oc2ccc(C(F)(F)F)cc2Cl)ccc1[N+](=O)[O-] (stereo not drawn) [Compound 8an]
- inhibition at 100 µM (HeLa cells [1]): 50%

Compound: C#CCOc1cc(N2C(=O)C3CCCCC3C2=O)c(F)cc1Cl (stereo not drawn) [Compound 8ac]
- inhibition at 100 µM (HeLa cells [1]): 50%

Compound: CC(C)Oc1cc(-n2nc(C(C)(C)C)oc2=O)c(Cl)cc1Cl [Agent 6d]
- concentration of Proto IX in tissue, Adrenal [3]: 4 ug of Proto IX per gram of tis
- concentration of Proto IX in tissue, Intestine [3]: 51 ug of Proto IX per gram of tis
- concentration of Proto IX in tissue, Kidneys [3]: 117 ug of Proto IX per gram of tis
- concentration of Proto IX in tissue, Liver [3]: 14 ug of Proto IX per gram of tis
- concentration of Proto IX in tissue, Tumor [3]: 18 ug of Proto IX per gram of tis
- Proto IX Mean Cps per gram, Adrenal [3]: 443 Cps per gram × 10^3
- Proto IX Mean Cps per gram, Kidneys [3]: 12865 Cps per gram × 10^3
- Proto IX Mean Cps per gram, Liver [3]: 1581 Cps per gram × 10^3
- Proto IX Mean Cps per gram, Tumor [3]: 2006 Cps per gram × 10^3
- Weight of Tumor as excised [3]: 294 mg
- Proto IX Mean Cps per gram, Intestine [3]: 5565 Cps per gram × 10^3

Compound: CC1(C)Cc2c(Br)ccc(OC(=O)N3CCCC3)c2O1 [Compound 8ae]
- effect on cell growth (rough observations) (HeLa cells [1]): lethal

Compound: C#CCOc1cc(-n2ncc(=O)n(C)c2=O)c(F)cc1Cl [Compound 8t]
- inhibition at 100 µM (HeLa cells [1]): 50%

Compound: CC(C)Oc1cc(-n2c(=O)n3n(c2=S)CCCC3)c(F)cc1Cl [Agent 6e]
- concentration of Proto IX in tissue, Adrenal [3]: 12 ug of Proto IX per gram of tis
- concentration of Proto IX in tissue, Intestine [3]: 19 ug of Proto IX per gram of tis
- concentration of Proto IX in tissue, Kidneys [3]: 8 ug of Proto IX per gram of tis
- concentration of Proto IX in tissue, Liver [3]: 8 ug of Proto IX per gram of tis
- concentration of Proto IX in tissue, Tumor [3]: 8 ug of Proto IX per gram of tis
- Proto IX Mean Cps per gram, Adrenal [3]: 1331 Cps per gram × 10^3
- Proto IX Mean Cps per gram, Kidneys [3]: 915 Cps per gram × 10^3
- Proto IX Mean Cps per gram, Liver [3]: 876 Cps per gram × 10^3
- Proto IX Mean Cps per gram, Tumor [3]: 837 Cps per gram × 10^3
- Weight of Tumor as excised [3]: 165 mg
- Proto IX Mean Cps per gram, Intestine [3]: 2069 Cps per gram × 10^3

Compound: COC(=O)c1cc(Oc2ccc(Cl)cc2Cl)ccc1[N+](=O)[O-] [Compound 8ap]
- inhibition at 100 µM (HeLa cells [1]): 50%

Compound: NCC(=O)CCC(=O)O [Agent A, 5-amino levulinic acid, reference compound]
- Amount of Proto IX (HeLa cells [4]; 5000 μM agent): 4.2 pmol
- Fluorescence Emission cps 400/630 (HeLa cells [4]; 5000 μM agent): 41842 cps

Compound: Cn1c(=O)cnn(-c2ccc(Cl)cc2F)c1=O [Agent E]
- Amount of Proto IX (HeLa cells [4]; 100 μM agent): 0.9 pmol
- Fluorescence Emission cps 400/630 (HeLa cells [4]; 100 μM agent): 8967 cps

Compound: C#CCOc1cc(N=C2SCC(=O)N2C)c(F)cc1Cl [Compound 8ah]
- effect on cell growth (rough observations) (HeLa cells [1]): lethal

Compound: CCOC(=O)C(C)Oc1ccc(Cn2c(C)nn(-c3cc(OC)c(Cl)cc3F)c2=O)cc1 (stereo not drawn) [Compound 8ag]
- inhibition at 100 µM (HeLa cells [1]): 25%

Compound: O=C(Nc1ccc(Cl)cc1)C(F)(F)Sc1ccccc1 [Compound 8ak]
- inhibition at 100 µM (HeLa cells [1]): 50%

Compound: CCS(=O)(=O)Nc1cc(-n2nnn(-c3ccc([N+](=O)[O-])cc3)c2=O)c(F)cc1Cl [Compound 8af]
- effect on cell growth (rough observations) (HeLa cells [1]): lethal

Compound: C#CCN1C(=O)COc2cc(F)c(-n3ncc(=O)n(C)c3=O)cc21 [Agent D]
- Amount of Proto IX (HeLa cells [4]; 100 μM agent): 1.1 pmol
- Fluorescence Emission cps 400/630 (HeLa cells [4]; 100 μM agent): 10551 cps

Compound: C#CCOc1cc(N2N=CCN(C)C2=O)c(F)cc1Cl [Compound 8u]
- inhibition at 100 µM (HeLa cells [1]): 60%

Compound: O=[N+]([O-])c1ccc(Oc2ccc(Cl)cc2Cl)cc1 [Compound 8ar]
- inhibition at 100 µM (HeLa cells [1]): 25%

Compound: C#CCOc1cc(N2C(=O)C(C)=C(C)C2=O)c(F)cc1Cl [Compound 8ab]
- effect on cell growth (rough observations) (HeLa cells [1]): lethal

Compound: Cc1nc2ccccc2n1Cc1c(F)c(F)c(F)c(F)c1F [Compound 8ad]
- effect on cell growth (rough observations) (HeLa cells [1]): lethal

Compound: CC(C)Oc1cc(-n2oc(=O)n(C)c2=O)c(F)cc1Cl [Compound 8ai]
- inhibition at 100 µM (HeLa cells [1]): 50%
